Laboratory results from US6203822A, “Gallium-containing compounds for the treatment of infections caused by intracellular pathogens and pathogens causing chronic pulmonary infection” (priority 1996, dated 2001).

Columns and labels:
[1] = test system: M. tuberculosis in human macrophages; experiment: Colony-forming unit assay to assess pathogen death; type: cell-based
Procedure: Example 4 and Example 5 detail exemplary methods used to determine whether the mycobacteria strains were killed by the addition of gallium nitrate. […] The bacteria were resuspended in 7H9 broth (BBL Microbiology Systems) or onto agar plates without gallium nitrate and incubated under conditions known to promote bacterial growth. In Example 4, the growth index for these cultures was assessed after 6 weeks to determine whether bacteria are inhibited or killed. […] In Example 5, M. tuberculosis-infected macrophages cell lysates were plated onto the surface of media able to support M. tuberculosis growth. Colony forming unit assays were counted to assess bacterial death or inhibition.
The growth index assay cannot always clearly distinguish between bacterial survival (without multiplication) and bacterial death. Therefore, colony forming unit assays were also used to assess the bactericidal activity of gallium-containing compounds in these experiments. Lysed monolayers were plated in Middlebrook 7H11 plates and colonies forming on the plates were counted after 14 days. […] In fact, this experiment provided the most graphic illustration of the influence of gallium nitrate on bacterial killing. That is, control-infected monolayers were lysed as a result of bacterial multiplication so that macrophages could no longer be visualized by microscopy. […] Importantly, the results in the colony-forming unit assay resemble the results obtained with the radiometric BACTEC assay.

[2] = test system: macrophage monolayers (MDMs); experiment: Gallium toxicity in uninfected MDM monolayers; type: cell-based, human; conditions: naphthol blue stained nuclei count, read-out: gallium concentration up to which no immediate difference in monolayer density
Procedure: To test the potential toxicity of gallium nitrate on the standard macrophage monolayers (MDMs) used in the assays described in this invention, uninfected MDM monolayers were incubated with various concentrations of gallium nitrate in the range used in the studies described in Examples 2 and 3.
There was no immediate difference in monolayer density between MDM monolayers with and without gallium nitrate treatment up to a gallium concentration of 2 mM. Results were based on counting napthol blue macrophage stained nuclei from the monolayer. These numbers directly correlate with the number of cells present. In most cases the integrity of the MDM monolayer in the presence of gallium was maintained for up to 37 days, equivalent to untreated, uninfected control cultures.

[3] = test system: M. tuberculosis strain H37Ra in human macrophages; experiment: Growth inhibition of M. tuberculosis H37Ra in human monocyte derived macrophages (MDM); type: cell-based
Procedure: Monocyte derived macrophages (MDM) containing strain H37Ra were incubated for 24 h (FIG. 2A), 48 h (FIG. 2B) or 72 h (FIG. 2C) and macrophages containing the virulent strain Erdman were incubated for 24 h (FIG. 2D) or 48 h (FIG. 2E) in gallium nitrate.
The gallium-containing compounds can also be tested for their ability to inhibit intracellular pathogens in tissue culture assays. In general, in these assays, the macrophages are placed in culture and incubated with the intracellular pathogen at an approximate cell to pathogen ratio of preferably at least 1:1 to about 1:5 cells:pathogen. Exemplary culture conditions are provided in the assays detailed in the Examples. For assays assessing M. tuberculosis infection, freshly adherent monocytes, 12 day-old adherent MDMs, or freshly adherent alveolar macrophages are incubated with M. tuberculosis, MAI or other intracellular bacteria at a ratio of about 1:1 to about 1:5 (phagocyte:bacterium). For M. tuberculosis or MAI, the bacteria are incubated with the phagocyte for 2 hr at 37° C. in RPMI/HEPES media with 2.5% serum or human serum albumin (serum-free). The cells are washed to remove non-adherent bacteria and monolayers are replated with RPMI containing 1% autologous serum (to maintain phagocyte viability but not to sustain extracellular growth of bacteria). Gallium-containing compounds, such as gallium nitrate, with, or without, other agents such as antibiotics, cytokines etc., are added about 24 hr. later and mycobacterial growth in cell lysates is then assessed over the next several days either by the radiometric BACTEC system or by colony-forming units on agarose plates. In each experiment, growth is assessed relative to control monolayers where no drug has been added.
Mononuclear phagocytes from healthy adult volunteers who were tuberculin skin test negative and had no history of mycobacterial infection were isolated and cultured in Teflon wells according to the methods of Schlesinger, et al. (J. Immunol. 150:2920-2930, 1993). […]

[4] = test system: M. avium-intracellulare complex (MAI), patient isolate; experiment: Growth inhibition of MAI (patient isolate) in human alveolar macrophages; type: cell-based; conditions: 500 μM, 24 hr and 48 hr
Procedure: M. avium-intracellulare complex (MAI) was obtained from the ATCC (#25291) and from a patient isolate from the State Hygienic laboratory at the University of Iowa Hospital and Clinics. Human alveolar macrophages were obtained from broncholavage of healthy patients and placed in monolayer culture. The bacteria were added to the cells in a bacteria to macrophage ratio of about 1:1. Growth index readings were obtained at 24 hr and 48 hr after gallium nitrate administration (500 μM) as described in Example 3 and used by Cavalieri, et al. (Antimicrob. Agents and Chemo. 39:1542-1545,1995).

[5] = test system: M. tuberculosis strain H37Ra; type: cell-based
[6] = test system: infected and uninfected cells; conditions: read-out: concentration not toxic in vitro

With `O=[N+]([O-])[O-].O=[N+]([O-])[O-].O=[N+]([O-])[O-].[Ga+3]` [gallium nitrate] the “colony-forming units from macrophage lysates, trend” value ([1]; between days 2 and 5 following gallium nitrate) was “continuous decrease in colony-forming units”, the “killing of M. tuberculosis” value ([1]; colony forming unit assay, FIG. 5) was “M. tuberculosis were killed” and the “colony-forming units relative to initial amount of bacteria in macrophages” value ([1]; day 5) was “only slightly below the initial amount of bacteria in macrophages”. The “monolayer of treated infected macrophages” value ([1]; during assay, control-infected monolayers were lysed) was “maintained a very good monolayer”, the MNTC [2] was ≥ 2 mM and the “inhibition of growth versus 24 h” value ([3]; 48 and 72 h) was “More marked inhibition of growth”. The inhibition of growth ([3]; 24 h) was “Inhibition of growth was observed”, the inhibition of growth ([3]; about 1 to about 1000 μM) was “dose-dependent inhibition of growth” and the “growth inhibition of MAI” value [4] was “inhibits the growth of MAI”. The “growth inhibition of MAI” value ([4]; listed as Gallium nitrate) was “significant inhibition of MAI growth”, the “concentration with marked inhibition of growth (comparison with gallium transferrin)” value [5] was 100 µM and the MNTC [6] was 1 mM.
